Data from patent US20050020612A1, “4-Aryliquinazolines and the use thereof as nhe-3 inhibitors” (priority 2001, published 2005).
Structures can show the parent of a compound that is named as a salt.

melting point [°C]	Compound
289 to 290	Cc1ccc(-c2nc(NN=C(N)N)nc3ccc(Cl)cc23)cc1 (as salt: HCl) [Example 10]
241	NC(N)=Nc1nc(-c2cccc(N3CCNCC3)c2)c2cc(Cl)ccc2n1 (as salt: HCl) [Example 225]
